Results: patent publication US8912156B1, “Markers for and methods of targeting tumor stem cells” (Whitehead Institute for Biomedical Research, priority 2011, dated 2014)

Assays:
BPLER cells [1] = assay: Mammosphere (tumorsphere) formation of BPLER cells after short-term drug treatment; type: cell-based, human; conditions: for BPLER cell capacity to form mammospheres (tumorsphere formation): 24 hours treatment, 24 hours recovery, 7 days drug-free sphere culture; for difference in response between BPLER and HMLER cells: BPLER vs HMLER
Procedure: (§1) Nor was any difference observed between BPLER and HMLER cells with paclitaxel or 5-fluorouracil (FIG. 3B). As noted above, tumorsphere formation capacity correlates with TSC subpopulations. With the tumorsphere assay employed, a single tumor cell can form a multicellular tumorsphere in suspension. To assess the short term effect of drug treatment, drugs were removed after treating the tumor cells in routine 2D culture conditions for 24 hours, and after a recovery period of 24 hours tumorsphere cultures were suspended in a medium free of drugs for 7 days.
(§2) BPLER and HMLER cells were maintained in WIT-T (Stemgent) and MGEM (Lonza) medium at 37° C. and 5% CO2. The remaining cell lines were grown in DMEM/F12 (Gibco) with 10% fetal bovine serum (FBS) at 37° C. and 5% CO2. The BPLER cells were grown on Primaria plasticware (BD Biosciences). The remaining cells were grown on standard plasticware (Falcon). The mammospheres were maintained in a 1:1 ratio of WIT-T/MEGM (less bovine pituitary extract) using 2% B27 (Invitrogen), 20 ng/ml EGF, 20 ng/ml bFGF (BD Biosciences), 4 ug/ml heparin (Sigma), and 0.5% methyl cellulose. Sphere formation experiments were carried out by plating 15,000-20,000 cells/well into 6-well ultra-low attachment plates (Corning). The cells were fed at days 1, 3, and 5, and spheres were counted at day 7.
(§3) Drug treatment experiments were performed in a 1:1 ratio of WIT-T/MEGM media. […] To evaluate the drug effect on 2D proliferation of BPLER and HMLER cells, the cells were plated at 125,000 cells/well in 6-well Primaria plates. Drug-containing media was added to each well after 24 hours. The cells were treated continuously for 4 days with drug-containing media changes each day. Cell number was counted with a hemocytometer after 4 days of treatment. To evaluate the drug effect on BPLER and HMLER cell mammosphere formation, cells were plated at 50% confluence in Primaria flasks. After 24 hours, drug-containing media was added to each flask. After 24 hours of treatment with the drug-containing media, the cells recovered for 24 hours in a drug-free media. Cells were then plated for the mammosphere protocol as described previously.

HMLER cells [2] = assay: Mammosphere (tumorsphere) formation of HMLER cells after short-term drug treatment; type: cell-based, human; conditions: 24 hours treatment, 24 hours recovery, 7 days drug-free sphere culture
Procedure: as §1, §2
as §3, with “Cells were then plated for the mammosphere protocol as described previously.” left out

[3] = test system: other Class I and Class II HDACs; conditions: TSA treatment of breast tumor cells; cited from earlier work
BPLER cells [4] = type: cell-based, human; conditions: only when the drugs were present
Procedure: as §2
as §3, with “After 24 hours, drug-containing media was added to each flask. After 24 hours of treatment with the drug-containing media, the cells recovered for 24 hours in a drug-free media. Cells were then plated for the mammosphere protocol as described previously.” left out

HMLER cells [5] = assay: Drug effect on 2D proliferation of HMLER cells; type: cell-based, human; conditions: only when the drugs were present
Procedure: as §2
as §3, with “After 24 hours, drug-containing media was added to each flask. After 24 hours of treatment with the drug-containing media, the cells recovered for 24 hours in a drug-free media. Cells were then plated for the mammosphere protocol as described previously.” left out

Structure (SMILES) | BPLER cell capacity to form mammospheres (tumorsphere formation) (BPLER cells [1]) | HMLER cell capacity to form mammospheres (tumorsphere formation) (HMLER cells [2]) | changes in expression of other Class I and Class II HDACs [3] | cytotoxic effect on BPLER cells (BPLER cells [4]) | cytotoxic effect on HMLER cells (HMLER cells [5]) | difference in response between BPLER and HMLER cells (BPLER cells [1])
CC(/C=C/C(=O)NO)=C\[C@@H](C)C(=O)c1ccc(N(C)C)cc1 [TSA, trichostatin A] | significantly decreased | did not affect | less than 2 fold |  |  | 
O=c1[nH]cc(F)c(=O)[nH]1 [5-fluorouracil] | not inhibited | not inhibited |  | cytotoxic effect | cytotoxic effect | no difference
CC(=O)O[C@H]1C(=O)[C@@]2(C)[C@H]([C@H](OC(=O)c3ccccc3)[C@]3(O)C[C@H](OC(=O)[C@H](O)[C@@H](NC(=O)c4ccccc4)c4ccccc4)C(C)=C1C3(C)C)[C@]1(OC(C)=O)CO[C@@H]1C[C@@H]2O [paclitaxel] | not inhibited | not inhibited |  | cytotoxic effect | cytotoxic effect | no difference
